{"source": "patent US20240091141A1", "about": "“METHODS AND COMPOSITIONS FOR THE ABLATION OF NERVES” (TULAVI THERAPEUTICS, INC., priority 2021, published 2024)", "origin": "cited, not measured here", "key": {"[1]": {"conditions": "meta-analysis covering over 12,000 patients"}, "a range of cell types": {"system": "a range of cell types", "conditions": "across a range of cell types"}, "sympathetic ganglia cell": {"system": "sympathetic ganglia cell", "conditions": "in vitro; 4 ug/ml (10 uM)"}, "[2]": {"system": "sympathetic, sensory and motor neurons"}}}
{"molecule": "hyaluronic acid", "values": [{"measurement": "effect of intraarticular injections", "setting": "[1]", "result": "either no effect or a “clinically irrelevant effect”"}]}
{"molecule": "C[C@H](CCCC(C)(C)O)[C@H]1CC[C@H]2[C@@H]3CC=C4C[C@@H](O)CC[C@]4(C)[C@H]3CC[C@]12C", "note": "[25-OH-cholesterol]", "values": [{"measurement": "neurotoxicity", "setting": "a range of cell types", "result": "demonstrated neurotoxicity"}]}
{"molecule": "Cholesterol oxides", "values": [{"measurement": "time to sympathetic ganglia cell death", "setting": "sympathetic ganglia cell", "result": "≤ 36", "unit": "h"}]}
{"molecule": "CCO", "note": "[ethanol]", "values": [{"measurement": "concentrations that result in neurolysis", "setting": "[2]", "result": "above 50%"}, {"measurement": "destruction of neurons", "setting": "[2]; One-hundred percent ethanol", "result": "completely destroy the cell bodies and axons"}]}
